Test results as given in ChEMBL document CHEMBL4706519, “Evaluation of N-phenyl-2-aminothiazoles for treatment of multi-drug resistant and intracellular Staphylococcus aureus infections” (Eur J Med Chem, 2020).

Experiments:
[1] = system: Staphylococcus aureus; assay: microbe, parasite or virus in culture; settings: NRS119
[2] = system: J774; assay: (§1) Cytotoxicity against mouse J774 cells assessed as cell viability at 32 ug/ml incubated for 2 hrs by MTS assay; format: cell-based; settings: j774, 2 h, dose 32 µg/ml
[3] = system: Staphylococcus aureus; assay: microbe, parasite or virus in culture; settings: USA700 NRS386
[4] = system: Staphylococcus aureus; assay: Antibacterial activity against methicillin-resistant Staphylococcus aureus USA300 NRS384 assessed as inhibition of bacterial growth measured after 18 to 20 hrs by broth microdilution method; format: functional; settings: time 18-20 hrs
[5] = system: Staphylococcus aureus; assay: Ratio of MBC to MIC against methicillin-sensitive Staphylococcus aureus ATCC 6538 assessed as inhibition of bacterial growth measured after 18 to 20 hrs by CLSI broth microdilution method; format: functional; settings: time 18-20 hrs
[6] = system: Staphylococcus aureus; assay: Ratio of MBC to MIC against methicillin-sensitive Staphylococcus aureus NRS107 assessed as inhibition of bacterial growth measured after 18 to 20 hrs by CLSI protocol based broth microdilution method; format: functional; settings: time 18-20 hrs
[7] = system: Enterococcus faecalis; assay: microbe, parasite or virus in culture; settings: ATCC 51299
[8] = system: Staphylococcus aureus; assay: Antibacterial activity against vancomycin-resistant Staphylococcus aureus 12 assessed as inhibition of bacterial growth measured after 18 to 20 hrs by CLSI protocol based broth microdilution method; format: functional; settings: time 18-20 hrs
[9] = system: Listeria monocytogenes; assay: Ratio of MBC to MIC for Listeria monocytogenes ATCC 19111 assessed as inhibition of bacterial growth measured after 18 to 20 hrs by CLSI protocol based broth microdilution method; format: functional; settings: time 18-20 hrs
[10] = system: Staphylococcus epidermidis; assay: Antibacterial activity against methicillin-resistant Staphylococcus epidermidis NRS101 assessed as inhibition of bacterial growth measured after 18 to 20 hrs by CLSI protocol based broth microdilution method; format: functional; settings: time 18-20 hrs
[11] = system: Staphylococcus epidermidis; assay: Ratio of MBC to MIC for methicillin-resistant Staphylococcus epidermidis NRS101 assessed as inhibition of bacterial growth measured after 18 to 20 hrs by CLSI protocol based broth microdilution method; format: functional; settings: time 18-20 hrs
[12] = Selectivity index, ratio of maximum non-toxic concentration for human Caco-2 cells to MIC for methicillin-resistant Staphylococcus aureus USA500 NRS385; format: toxicity
[13] = Selectivity index, ratio of maximum non-toxic concentration for human Caco-2 cells to MIC for methicillin-resistant Staphylococcus aureus USA700 NRS386; format: toxicity
[14] = system: Staphylococcus aureus; assay: microbe, parasite or virus in culture; settings: ATCC 6538
[15] = system: Streptococcus pneumoniae; assay: Ratio of MBC to MIC for methicillin-resistant Streptococcus pneumoniae ATCC 700677 assessed as inhibition of bacterial growth measured after 18 to 20 hrs by CLSI protocol based broth microdilution method; format: functional; settings: time 18-20 hrs
[16] = system: Enterococcus faecalis; assay: Ratio of MBC to MIC for vancomycin-resistant Enterococcus faecalis ATCC 51299 assessed as inhibition of bacterial growth measured after 18 to 20 hrs by CLSI protocol based broth microdilution method; format: functional; settings: time 18-20 hrs
[17] = system: Staphylococcus aureus; assay: Bactericidal activity against methicillin-resistant Staphylococcus aureus USA400 NRS123 assessed as eradication of bacterial count at 5 times MIC incubated for 2 hrs in soy broth followed by incubation for 18 to 20 hrs on agar plate by time kill assay; format: functional; settings: time 20-22 hrs
[18] = Selectivity index, ratio of maximum non-toxic concentration for human Caco-2 cells to MIC for methicillin-resistant Staphylococcus aureus USA300 NRS384; format: toxicity
[19] = system: Escherichia coli; assay: Antibacterial activity against Escherichia coli JW55031 harboring toIC efflux mutant assessed as inhibition of bacterial growth measured after 18 to 20 hrs by broth microdilution method; format: functional; settings: time 18-20 hrs
[20] = system: Enterococcus faecium; assay: Antibacterial activity against vancomycin-resistant Enterococcus faecium ATCC 700221 assessed as inhibition of bacterial growth measured after 18 to 20 hrs by CLSI protocol based broth microdilution method; format: functional; settings: time 18-20 hrs
[21] = system: Staphylococcus aureus; assay: Antibacterial activity against methicillin-resistant Staphylococcus aureus USA400 NRS123 infected in mouse J774 cells assessed as log reduction in intracellular bacterial burden at 2 x MIC measured after 24 hrs; format: functional
[22] = Selectivity index, ratio of maximum non-toxic concentration for human Caco-2 cells to MIC for methicillin-resistant Staphylococcus aureus NRS119; format: toxicity
[23] = system: Staphylococcus aureus; assay: Antibacterial activity against vancomycin-resistant Staphylococcus aureus 10 assessed as inhibition of bacterial growth measured after 18 to 20 hrs by CLSI protocol based broth microdilution method; format: functional; settings: time 18-20 hrs
[24] = system: Escherichia coli; assay: Antibacterial activity against wild type Escherichia coli BW25113 assessed as inhibition of bacterial growth measured after 18 to 20 hrs by broth microdilution method; format: functional; settings: time 18-20 hrs
[25] = system: Staphylococcus aureus; assay: microbe, parasite or virus in culture; settings: USA500 NRS385
[26] = system: Enterococcus faecium; assay: Ratio of MBC to MIC for vancomycin-resistant Enterococcus faecium ATCC 700221 assessed as inhibition of bacterial growth measured after 18 to 20 hrs by CLSI protocol based broth microdilution method; format: functional; settings: time 18-20 hrs
[27] = system: Staphylococcus aureus; assay: Antibacterial activity against methicillin-resistant Staphylococcus aureus USA400 NRS123 infected in mouse J774 cells assessed as reduction in intracellular bacterial burden at 2 x MIC measured after 24 hrs relative to control; format: functional
[28] = system: Streptococcus pneumoniae; assay: Ratio of MBC to MIC for cephalosporin-resistant Streptococcus pneumoniae ATCC 51916 assessed as inhibition of bacterial growth measured after 18 to 20 hrs by CLSI protocol based broth microdilution method; format: functional; settings: time 18-20 hrs
[29] = system: Streptococcus pneumoniae; assay: Antibacterial activity against cephalosporin-resistant Streptococcus pneumoniae ATCC 51916 assessed as inhibition of bacterial growth measured after 18 to 20 hrs by CLSI protocol based broth microdilution method; format: functional; settings: time 18-20 hrs
[30] = system: Staphylococcus aureus; assay: Antibacterial activity against methicillin-resistant Staphylococcus aureus USA400 NRS123 infected in mouse J774 cells assessed as log reduction in intracellular bacterial burden at 4 x MIC measured after 24 hrs; format: functional
[31] = system: Staphylococcus aureus; assay: Bactericidal activity against methicillin-resistant Staphylococcus aureus USA400 NRS123 assessed as log reduction in viable bacteria count at 5 times MIC incubated for 2 hrs in soy broth followed by incubation for 18 to 20 hrs on agar plate by time kill assay; format: functional; settings: time 20-22 hrs
[32] = system: Staphylococcus aureus; assay: microbe, parasite or virus in culture; settings: USA400 NRS123
[33] = system: Staphylococcus aureus; assay: Bactericidal activity against methicillin-resistant Staphylococcus aureus USA400 NRS123 assessed as post-antibiotic effect at 5 times MIC incubated for 2 hrs followed by compound wash-out by viable plate count method; format: functional
[34] = Cytotoxicity against human Caco-2 cells assessed as cell viability at 32 ug/ml incubated for 2 hrs by MTS assay relative to control; format: cell-based; settings: at 32 µg/mL, read-out: Activity
[35] = system: Staphylococcus aureus; assay: microbe, parasite or virus in culture; settings: NRS107
[36] = system: Listeria monocytogenes; assay: Antibacterial activity against Listeria monocytogenes ATCC 19111 assessed as inhibition of bacterial growth measured after 18 to 20 hrs by CLSI protocol based broth microdilution method; format: functional; settings: time 18-20 hrs
[37] = Selectivity index, ratio of maximum non-toxic concentration for human Caco-2 cells to MIC for methicillin-resistant Staphylococcus aureus USA400 NRS123; format: toxicity
[38] = system: Staphylococcus aureus; assay: Ratio of MIC for methicillin-resistant Staphylococcus aureus USA400 NRS123 measured after 14th passage to MIC for methicillin-resistant Staphylococcus aureus USA400 NRS123 measured after 18 to 20 hrs by broth microdilution assay; format: functional
[39] = system: Staphylococcus aureus; assay: Ratio of MIC for methicillin-resistant Staphylococcus aureus USA400 NRS123 measured after 7th passage to MIC for methicillin-resistant Staphylococcus aureus USA400 NRS123 measured after 18 to 20 hrs by broth microdilution assay; format: functional
[40] = system: Streptococcus pneumoniae; assay: Antibacterial activity against methicillin-resistant Streptococcus pneumoniae ATCC 700677 assessed as inhibition of bacterial growth measured after 18 to 20 hrs by CLSI protocol based broth microdilution method; format: functional; settings: time 18-20 hrs
[41] = system: Staphylococcus aureus; assay: Antibacterial activity against methicillin-resistant Staphylococcus aureus USA400 NRS123 infected in mouse J774 cells assessed as reduction in intracellular bacterial burden at 4 x MIC measured after 24 hrs relative to control; format: functional
[42] = as §1; format: cell-based; settings: J774 cells, at 32 µg/mL, read-out: Activity
[43] = Cytotoxicity against mouse J774 cells assessed as cell viability at 16 ug/ml incubated for 2 hrs by MTS assay relative to control; format: cell-based; settings: at 16 µg/mL, read-out: Activity
[44] = system: Staphylococcus aureus; assay: Ratio of MIC for methicillin-resistant Staphylococcus aureus USA400 NRS123 measured after 11th passage to MIC for methicillin-resistant Staphylococcus aureus USA400 NRS123 measured after 18 to 20 hrs by broth microdilution assay; format: functional
[45] = system: Staphylococcus aureus; assay: Ratio of MIC for methicillin-resistant Staphylococcus aureus USA400 NRS123 measured after 5th passage to MIC for methicillin-resistant Staphylococcus aureus USA400 NRS123 measured after 18 to 20 hrs by broth microdilution assay; format: functional
[46] = system: Staphylococcus aureus; assay: Bactericidal activity against methicillin-resistant Staphylococcus aureus USA400 NRS123 assessed as eradication of bacterial count at 5 times MIC incubated for 8 hrs in soy broth followed by incubation for 18 to 20 hrs on agar plate by time kill assay; format: functional; settings: time 26-28 hrs

C/C(=N\NC(=N)N)c1ccc(Nc2nc(-c3ccc(Cl)cc3)cs2)cc1
16: selectivity ratio [12] | selectivity ratio [13] | selectivity ratio [18] | selectivity ratio [22] | selectivity ratio [37]
100%: Activity [17] | viability at 2 h, 32 ug/ml [34]
0.51 log10CFU/ml: Activity [21]
1: Ratio [5] | Ratio [6] | Ratio [9] | Ratio [11] | Ratio [15] | Ratio [16] | Ratio [26] | Ratio [28] | Ratio [39]
69%: inhibition (INH) [27]
Non-Toxic: Activity [2]
2 µg/mL: MBC [20] | MBC [25] | MIC [29] | MBC [36] | MIC [40]
3 log10CFU/ml: Activity [31]
1 µg/mL: MBC [1] | MIC [1] | MIC [3] | MIC [7] | MBC [8] | MIC [8] | MBC [10] | MIC [10] | MBC [14] | MIC [14] | MIC [20] | MBC [23] | MIC [23] | MIC [25] | MBC [32] | MIC [32] | MBC [35] | MIC [35] | MIC [36]
4 h: PAE [33]
97%: inhibition (INH) [41]
1.56 log10CFU/ml: Activity [30]
4 µg/mL: MBC [3] | MIC [4] | MBC [7] | MBC [29] | MBC [40]
3: Ratio [38]
8 µg/mL: MIC [19] | MIC [24]

C/C(=N\NC(=N)N)c1ccc(Nc2nc(-c3ccccc3)cs2)cc1
1 µg/mL: MBC [10] | MIC [10] | MIC [35] | MIC [36]
8 µg/mL: MBC [3] | MIC [24] | MBC [40]
1.07 log10CFU/ml: Activity [21]
16: selectivity ratio [12] | selectivity ratio [13] | selectivity ratio [18] | selectivity ratio [22] | selectivity ratio [37]
1: Ratio [5] | Ratio [6] | Ratio [9] | Ratio [11] | Ratio [15] | Ratio [16] | Ratio [45] | Ratio [26] | Ratio [28]
100%: viability at 2 h, 32 ug/ml [42] | viability at 2 h, 16 ug/ml [43] | viability at 2 h, 32 ug/ml [34] | Activity [46]
4 µg/mL: MBC [1] | MBC [7] | MBC [8] | MIC [19] | MBC [20] | MBC [29] | MBC [35] | MBC [36]
2 h: PAE [33]
3 log10CFU/ml: Activity [31]
2 µg/mL: MIC [1] | MIC [3] | MIC [4] | MIC [7] | MIC [8] | MBC [14] | MIC [14] | MIC [20] | MBC [23] | MIC [23] | MBC [25] | MIC [25] | MIC [29] | MBC [32] | MIC [32] | MIC [40]
88%: inhibition (INH) [27]
3: Ratio [44]
1.19 log10CFU/ml: Activity [30]
93%: inhibition (INH) [41]
